Assay results taken from patent US7144706B2, “Methods of modulating localization and physiological function of IP3 receptors” (Duke University, priority 2002, dated 2006).
“Also recorded” adds a separate entry of the source. Where no end group is shown, it is not given here.

What was measured:
[1] = tested on: wildtype and ankyrin-B (+/−) mice; test: Heart rate by ECG radiotelemetry in conscious mice after drug injection; assay type: in vivo, mouse; details: for heart rate response to endothelin-1: 300 ng/kg
Procedure: (§1) EKG recordings. EKG recordings were obtained using a radiotelemetry apparatus (DSI). Transmitters were implanted and the mice recovered for 5 days prior to recordings. EKG traces were analyzed using Data Quest analysis software 2.1 (DSI). P wave duration, PR interval, RR interval, QRS interval and QT interval were all calculated according to established methods. The rate corrected QT interval (QTc) was calculated from the relationship QTc=QT/(RR)^1/2 Following a 15-hour fast, blood glucose levels were measured (OneTouch Ultra; Lifescan) before and up to 120 min after an intraperitoneal injection of either PBS, glucose (2 g/kg) or insulin (5 units/kg; Eli Lilly) (Ludwig et al, J. Clin. Invest. 107:379–386 (2001)).
To test ankyrin-B heterozygous mice for potential defects in Gαq signaling, ECG radiotransmitter implants were implanted in the abdomen of ankyrin-B (+/−) mice as well as wildtype littermate controls. These probes allow the recording of real time ECG and thus heart rate recordings in conscious, non-anethestized mice. 24 hour recordings of wildtype mice compared to heterozygote animals show overall bradycardia in the heterozygote (FIG. 9).

[2] = tested on: adult AnkB+/− and control ventricular cardiomyocytes; test: Action potential recordings in isolated adult ventricular cardiomyocytes with isoproterenol; assay type: cell-based, mouse; details: for extrasystoles in action potentials after acute isoproterenol: isoproterenol (1 μM); for myocytes with DADs and EADs: isoproterenol
Procedure: Patch clamp methods. AnkB+/− and +/+ animals (1–3 months of age) were sacrificed by IP injection of pentobarbital sodium (100 mg/kg). Single myocytes were isolated (Santana et al, J. Physiol. 503:21 (1997)). Axopatch-200A or -200B amplifier (Axon Instruments) was used to measure membrane currents (Santana et al, J. Physiol. 503:21(1997), Santana et al, Science 279:1027 (1998)). Patch pipette (1–3 MOhm) solution (mM): CsCl (130); NaCl (10); MgATP (5); Hepes (10), MgCl2 (1) PH 7.2 (with CsOH). Superfusion solution 1: (mM) NaCl (140), KCl (5) MgCl2 (0.5), CaCl2 (1.8), NaH2PO4 (0.33), glucose (5.5) and HEPES (5); pH 7.4 at 35–37° C. Solution 2 was same as solution 1 but with CsCl substituted for KCl. After conversion to whole cell, voltage clamp in solution (1), solution (2) was used to measure ICa. Test depolarizations followed four 50 ms depolarizations to 0 mV at 1 Hz. A 500 ms ramp-depolarization from […] to 40 mV was followed by a 50 ms period at 40 mV before test depolarizations.
AP recordings. Myocytes were superfused with Solution 1. β adrenergic stimulation of cells produced by the addition of 1 μM isoproterenol to solution 1. Pipette filling solution as above, except KCl was substituted for CsCl (pH 7.2 with KOH). Axopatch 200A was used in current clamp mode to record AP. Current injections triggered AP at constant rate (1 Hz, 5 Hz). All experiments were performed at 37° C.

[3] = tested on: (+/+) and AnkB (+/−) mice; test: Insulin-tolerance test, blood glucose; assay type: in vivo, mouse; details: 5 units/kg intraperitoneal, 120 min
Procedure: as §1

Na/K ATPase = test: [3H]ouabain binding to adult cardiac microsomes; parameters: species or system mouse
Text: Na/K ATPase, Na/Ca exchanger (NCX) and IP3R are candidate ankyrin-binding proteins based on biochemical data (Bennett et al, Physiol. Rev. 81:1353 (2001)) that are localized at T-tubules (Frank et al, in The Myocardium (ed. Langer, G A) 1–32 (Academic Press, San Diego, Calif., 1997)). Ankyrin-B co-immunoprecipitates with NCX1, α1 and α2 ATPase, and IP3R from extracts of heart tissue (FIG. 30B), but not with other cardiomyocyte proteins (including DHPR, SERCA2, and calsequestrin). Levels of IP3R (pan IP3R), α1 and α2 Na/K ATPase subunits, and NCX in isolated adult cardiomyocytes are reduced by 15–33% in AnkB+/− cardiomyocytes by immunoblots (FIG. 30C). Measurements of binding of [^3H] […] In contrast, by quantitative western blot analysis, protein levels of ER/SR components (SERCA2, calreticulin, calsequestrin), K+ channels or associated subunits (KCNQ1/KvLQT1, ERG1, MinK/IsK, Kir2.1/IRK1, Kir2.3/IRK3), RyR2, plasma membrane Ca^+2 channels (DHPR, PMCA2), and structural proteins (α-actinin, dystrophin) are unaffected (FIG. 30C).

AnkB+/− and +/+ mice = tested on: AnkB+/− and +/+ mice
Text: Sudden cardiac death in humans with the E1425G mutation occurred secondary to physical exertion and emotional stress (FIG. 28)3. An attempt was made to mimic these circumstances in mice with exercise followed by injection with epinephrine.

IP3R = test: [3H]IP3 binding assay and Scatchard analysis, cardiac muscle microsomes; parameters: species or system mouse; details: for Kd: n=5
Procedure: IP3 Binding Experiments. Cardiac membranes were prepared and labeled with increasing concentrations (5–40 nM) of [^3H] IP3 (Amersham) essentially as described (Perez et al, J. Biol. Chem. 272:23961 1997)). Assays were performed in triplicate, and at each IP3 concentration, non-specific binding was assessed in the presence of 1 μM unlabeled IP3 (ICN).

## CC(C)NCC(O)COc1cccc2ccccc12 (stereo not drawn) [propanolol]
[1]; wildtype and ankyrin-B heterozygote mice
  heart rate response to propanolol: typical decreases in heart rate which were not significantly different

## CC(C)NCC(O)c1ccc(O)c(O)c1 (stereo not drawn) [isoproterenol]
[1]; wildtype and ankyrin-B (+/−) mice, 50 mg/kg
  heart rate response to isoproterenol: responsed equally
[2]; AnkB+/− cardiomyocytes
  extrasystoles in action potentials after acute isoproterenol: developed spontaneous extrasystoles at both 1 and 5 Hz
[2]; AnkB+/− myocytes, 1 and 5 Hz
  myocytes with DADs and EADs: 36%
[2]; control cells
  extrasystoles in action potentials after acute isoproterenol: did not
[2]; control myocytes
  myocytes with DADs and EADs: no control myocytes

## CNC[C@H](O)c1cccc(O)c1 [phenylephrine]
[1]; ankyrin-B (+/−) mice, 3 mg/kg
  heart rate response to phenylephrine: significant decreased heart rate sensitivity; also recorded: does not reach the same minimum levels as the wildtype
[1]; ankyrin-B heterozygous mice, propanolol injected prior to phenylephrine
  maximal decrease in heart rate after phenylephrine during beta blockade: ~50 % of the wildtype response
[1]; wildtype mice, 3 mg/kg intraperitoneal
  heart rate response to phenylephrine: rapid decrease in heart rate

## insulin
[3]; (+/+) mice
  blood glucose after insulin injection: decline following the insulin injection and return to near normal levels by the end of the 120 min period
[3]; AnkB (+/−) mice
  blood glucose after insulin injection: significant reduction in blood glucose levels

## C[C@@H]1O[C@@H](O[C@H]2C[C@@H](O)[C@]3(CO)[C@H]4[C@H](O)C[C@]5(C)[C@@H](C6=CC(=O)OC6)CC[C@]5(O)[C@@H]4CC[C@]3(O)C2)[C@H](O)[C@H](O)[C@H]1O [ouabain]
Na/K ATPase; AnkB+/− heart vs +/+
  reduction in [3H]ouabain binding capacity: 16%
Na/K ATPase; adult cardiac microsomes
  affinity for ligand, AnkB+/− vs +/+: unchanged

## CNC[C@H](O)c1ccc(O)c(O)c1 [epinephrine]
AnkB+/− and +/+ mice; +/+ mice
  mice that became unresponsive or died: 0/6
AnkB+/− and +/+ mice; AnkB+/− mice
  mice that died following exercise combined with epinephrine: 8/14
AnkB+/− and +/+ mice; AnkB+/− mouse, exercise and epinephrine
  time to polymorphic ventricular arrhythmias after EPI: ~17 min

## O=P(O)(O)O[C@@H]1[C@H](O)[C@H](O)[C@@H](OP(=O)(O)O)[C@H](OP(=O)(O)O)[C@H]1O [IP3, inositol 1,4,5-triphosphate]
IP3R; (+/+) cardiac muscle
  Bmax, IP3 binding capacity: 0.083 pmol/mg
  Kd: 24 nM
IP3R; AnkB (+/−) cardiac muscle
  Bmax, IP3 binding capacity: 0.056 pmol/mg
  Kd: 25 nM
IP3R; AnkB (+/−) vs wildtype heart
  reduction in IP3 binding capacity: 33%
IP3R; adult cardiac microsomes
  affinity for ligand, AnkB+/− vs +/+: unchanged

## endothelin-1 (CSCSSLMDKECVYFCHLDIIW; ends and bridges not checked; cysteine pairing not given here; UniProt P05305 53-73, looked up) [signals via a Gαq-coupled receptor]
[1]; ankyrin-B (+/−) mice
  heart rate response to endothelin-1: significantly reduced; also recorded: does not reach the same levels as the wildtype
[1]; wildtype animals
  heart rate response to endothelin-1: significant decrease in heart rate
